Measured values from patent US20110230477A1, “COMPOUNDS, PHARMACEUTICAL COMPOSITION AND METHODS FOR USE IN TREATING METABOLIC DISORDERS” (Euroscreen S.A., priority 2008, published 2011).

Biological target: T1, human GPR43 receptor (hGPR43) (Homo sapiens, UniProt O15552)
T1 construct: expressed in transfected cells
T1 sequence (O15552 1-330): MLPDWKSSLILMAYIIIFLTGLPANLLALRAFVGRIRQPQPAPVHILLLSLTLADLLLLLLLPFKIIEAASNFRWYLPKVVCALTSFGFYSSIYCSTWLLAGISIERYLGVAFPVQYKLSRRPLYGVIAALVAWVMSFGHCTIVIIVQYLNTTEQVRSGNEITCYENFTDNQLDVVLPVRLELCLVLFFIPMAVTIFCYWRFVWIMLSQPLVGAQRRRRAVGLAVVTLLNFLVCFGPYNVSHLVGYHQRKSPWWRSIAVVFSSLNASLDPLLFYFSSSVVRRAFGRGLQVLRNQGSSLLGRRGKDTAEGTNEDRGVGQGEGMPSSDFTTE
Assay: GTPγS binding assay (SPA method)
Type: biochemical
Conditions: membranes expressing hGPR43; assay performed in the presence of SCFA; read-out: EC50 (nM) in GTPγ35S assay
Description: The following assay can be used for determination of GPR43 activation. When a GPCR is in its active state, either as a result of ligand binding or constitutive activation, the receptor couples to a G protein and stimulates the release of GDP and subsequent binding of GTP to the G protein. The alpha subunit of the G protein-receptor complex acts as a GTPase and slowly hydrolyses the GTP to GDP, at which point the receptor normally is deactivated. Activated receptors continue to exchange GDP for GTP. […] The assay uses the ability of GPCR to stimulate [^35S]GTPγS binding to membranes expressing the relevant receptors. The assay can, therefore, be used in the direct identification method to screen candidate compounds to endogenous or not endogenous GPCR.
Membrane extracts were prepared from cells expressing the human GPR43 receptor (hGPR43) as follows: the medium was aspirated and the cells were scraped from the plates in Ca^++ and Mg^++-free Phosphate-buffered saline (PBS). The cells were then centrifuged for 3 min at 1500 g and the pellets were resuspended in buffer A (15 mM Tris-HCl pH 7.5, 2 mM MgCl2, 0.3 mM EDTA, 1 mM EGTA) and homogenized in a glass homogenizer. […] Protein content was assayed by the Folin method.
The assay was performed in the presence of SCFA, and was used to determine the activity of the compounds of the invention.
The [^35S]GTPγS assay was incubated in 20 mM HEPES pH7.4, 100 mM NaCl, 10 μg/ml saponin, 30 mM of MgCl2, 10 μM of GDP, 5 μg membrane-expressing hGPR43, 250 μg of wheatgerm agglutinin beads (Amersham, ref: RPNQ001), a range concentration of compounds (from 30 μM to 1 nM) in a final volume of 100 μl for 30 min at room temperature. The SCFA propionate was used at 1 mM final concentration as positive control. The plates were then centrifuged for 10 minutes at 2000 rpm, incubated for 2 hours at room temperature and counted for 1 min in a scintillation counter (TopCount, PerkinElmer).

Structure (SMILES) | EC50
O=C(O)C[C@@H](Cc1ccc(F)cc1)C(=O)Nc1nc(-c2ccccc2Cl)cs1 [Compound 17, (R)-4-(4-(2-chlorophenyl)thiazol-2-ylamino)-3-(4-fluorobenzyl)-4-oxobutanoic acid] | 643 nM
O=C(O)C[C@@H](Cc1ccccc1)C(=O)Nc1nc(-c2ccccc2Cl)cs1 [Compound 2, (R)-3-benzyl-4-(4-(2-chlorophenyl)thiazol-2-ylamino)-4-oxobutanoic acid] | 273 nM
CN(C(=O)[C@@H](CC(=O)O)Cc1ccccc1)c1nc(-c2ccccc2Cl)c(F)s1 [Compound 60, (R)-3-benzyl-4-((4-(2-chlorophenyl)-5-fluorothiazol-2-yl)(methyl)amino)-4-oxobutanoic acid] | 95 nM
Cc1ccc(CC(CC(=O)O)C(=O)N(C)c2nc(-c3ccccc3Cl)cs2)cc1 (stereo not shown) [Compound 110, 4-((4-(2-chlorophenyl)thiazol-2-yl)(methyl)amino)-3-(4-methylbenzyl)-4-oxobutanoic acid] | 452 nM
O=C(O)C[C@@H](Cc1ccccc1)C(=O)Nc1nc(-c2cccc(Cl)c2)cs1 [Compound 12, (R)-3-benzyl-4-(4-(3-chlorophenyl)thiazol-2-ylamino)-4-oxobutanoic acid] | 424 nM
N#Cc1ccc(-c2csc(NC(=O)[C@@H](CC(=O)O)Cc3ccccc3)n2)cc1 [Compound 8, (R)-3-benzyl-4-(4-(4-cyanophenyl)thiazol-2-ylamino)-4-oxobutanoic acid] | 563 nM
O=C(O)C[C@@H](Cc1ccccc1)C(=O)Nc1nc(-c2cc(Cl)sc2Cl)cs1 [Compound 112, (R)-3-benzyl-4-(4-(2,5-dichlorothiophen-3-yl)thiazol-2-ylamino)-4-oxobutanoic acid] | 538 nM
C[C@@H](O)CN(C(=O)[C@@H](CC(=O)O)Cc1ccccc1)c1nc(-c2ccccc2Cl)cs1 [Compound 246, (R)-3-benzyl-4-((4-(2-chlorophenyl)thiazol-2-yl)((R)-2-hydroxypropyl)amino)-4-oxobutanoic acid] | 628 nM
O=C(O)C[C@@H](Cc1ccccc1)C(=O)Nc1nc(-c2ccccc2F)cs1 [Compound 4, (R)-3-benzyl-4-(4-(2-fluorophenyl)thiazol-2-ylamino)-4-oxobutanoic acid] | 759 nM
CN(C(=O)[C@@H](CC(=O)O)Cc1ccccc1)c1nc(-c2cccc(OC(F)F)c2)cs1 [Compound 164, (R)-3-benzyl-4-((4-(3-(difluoromethoxy)phenyl)thiazol-2-yl)(methyl)amino)-4-oxobutanoic acid] | 161 nM
CC(C)C[C@H](CC(=O)O)C(=O)N(C)c1nc(-c2ccccc2Cl)cs1 [Compound 90, (R)-3-((4-(2-chlorophenyl)thiazol-2-yl)(methyl)carbamoyl)-5-methylhexanoic acid] | 88 nM
CN(C(=O)[C@@H](CC(=O)O)Cc1ccccc1)c1nc(-c2ccccc2Cl)ns1 [Compound 83, (R)-3-benzyl-4-((3-(2-chlorophenyl)-1,2,4-thiadiazol-5-yl)(methyl)amino)-4-oxobutanoic acid] | 98 nM
CN(C(=O)[C@@H](CC(=O)O)Cc1ccccc1)c1nc(-c2ccccc2-c2ccc(Cl)cc2)cs1 [Compound 149, (R)-3-benzyl-4-((4-(4′-chloro-[1,1′-biphenyl]-2-yl)thiazol-2-yl)(methyl)amino)-4-oxobutanoic acid] | 225 nM
CN(C(=O)C(CC(=O)O)Cc1ccco1)c1nc(-c2ccccc2Cl)cs1 (stereo not shown) [Compound 143] | 77 nM
CN(C(=O)[C@H]1CCCC[C@H]1C(=O)O)c1nc(-c2ccccc2Cl)cs1 (relative stereo) [Compound 101, cis-2-((4-(2-chlorophenyl)thiazol-2-yl)(methyl)carbamoyl)cyclohexanecarboxylic acid] | 67 nM
O=C(O)C[C@@H](Cc1ccccc1)C(=O)Nc1nc(-c2ccc(Cl)cc2Cl)cs1 [Compound 3, (R)-3-benzyl-4-(4-(2,4-dichlorophenyl)thiazol-2-ylamino)-4-oxobutanoic acid] | 653 nM
C[C@H](c1ccccc1)[C@@H](CC(=O)O)C(=O)N(C)c1nc(-c2ccccc2Cl)cs1 [Compound 195, (3R,4S)-3-((4-(2-chlorophenyl)thiazol-2-yl)(methyl)carbamoyl)-4-phenylpentanoic acid] | 2170 nM
CN(C(=O)[C@@H](CC(=O)O)Cc1ccccc1)c1nc(-c2ccccc2-c2ccc(N3CCCC3=O)nc2)cs1 [Compound 150, (R)-3-benzyl-4-(methyl(4-(2-(6-(2-oxopyrrolidin-1-yl)pyridin-3-yl)phenyl)thiazol-2-yl)amino)-4-oxobutanoic acid] | 353 nM
O=C(O)/C=C\C(=O)Nc1nc(-c2ccccc2Cl)cs1 [Compound 10, (Z)-4-(4-(2-chlorophenyl)thiazol-2-ylamino)-4-oxobut-2-enoic acid] | 405 nM
O=C(O)C[C@@H](Cc1ccccc1)C(=O)N(CCCO)c1nc(-c2ccccc2Cl)cs1 [Compound 156, (R)-3-benzyl-4-((4-(2-chlorophenyl)thiazol-2-yl)(3-hydroxypropyl)amino)-4-oxobutanoic acid] | 867 nM
Cc1cc(-c2csc(NC(=O)[C@@H](CC(=O)O)Cc3ccccc3)n2)c(C)s1 [Compound 102, (R)-3-benzyl-4-(4-(2,5-dimethylthiophen-3-yl)thiazol-2-ylamino)-4-oxobutanoic acid] | 442 nM
CN(C(=O)[C@@H](CC(=O)O)Cc1ccccc1)c1nc(-c2ccccc2-c2ccoc2)cs1 [Compound 135, (R)-3-benzyl-4-((4-(2-(furan-3-yl)phenyl)thiazol-2-yl)(methyl)amino)-4-oxobutanoic acid] | 796 nM
COc1ncc(-c2ccc(Cl)cc2-c2csc(N(C)C(=O)[C@@H](CC(=O)O)Cc3ccccc3)n2)cc1Cl [Compound 222, (R)-3-benzyl-4-((4-(5-chloro-2-(5-chloro-6-methoxypyridin-3-yl)phenyl)thiazol-2-yl)(methyl)amino)-4-oxobutanoic acid] | 102 nM
O=C(O)C1CC=CCC1C(=O)Nc1nc(-c2ccccc2Cl)cs1 (stereo not shown) [Compound 1, 6-(4-(2-chlorophenyl)thiazol-2-ylcarbamoyl)cyclohex-3-enecarboxylic acid] | 109 nM
CN1CCOc2cc(-c3ccccc3-c3csc(N(C)C(=O)[C@@H](CC(=O)O)Cc4ccccc4)n3)cnc21 [Compound 182, (R)-3-benzyl-4-(methyl(4-(2-(4-methyl-3,4-dihydro-2H-pyrido[3,2-b][1,4]oxazin-7-yl)phenyl)thiazol-2-yl)amino)-4-oxobutanoic acid] | 92 nM
O=C(O)C[C@@H](Cc1ccccc1)C(=O)Nc1nc(-c2ccccc2Cl)c(F)s1 [Compound 20, (R)-3-benzyl-4-(4-(2-chlorophenyl)-5-fluorothiazol-2-ylamino)-4-oxobutanoic acid] | 96 nM
CN(C(=O)[C@@H](CC(=O)O)Cc1ccccc1)c1nc(-c2ccccc2-c2ccsc2)cs1 [Compound 107, (R)-3-benzyl-4-(methyl(4-(2-(thiophen-3-yl)phenyl)thiazol-2-yl)amino)-4-oxobutanoic acid] | 361 nM
COc1ncc(-c2ccc(Cl)cc2-c2csc(N(C(=O)[C@@H](CC(=O)O)CC3CCCC3)C3CC3)n2)cc1F [Compound 224, (R)-4-((4-(5-chloro-2-(5-fluoro-6-methoxypyridin-3-yl)phenyl)thiazol-2-yl)(cyclopropyl)amino)-3-(cyclopentylmethyl)-4-oxobutanoic acid] | 27 nM
